Source: patent US10865388B2, “Method for identifying anti-cancer agents using an in vitro cell culture system that maintains cancer cell stemness” (National Taiwan University, priority 2014, dated 2020)

What was measured:
Format in all cases: cell-based, human
CLS1/CAF = test: Drug resistance assay (MTT), CLS1/CAF; details: 48 h drug treatment, CLS1 co-cultured with CAFs
Protocol: (§1) An MTT [3-(4,5-dimethylthiazolyl-2)-2,5-diphenyltetrazolium bromide] (Sigma) assay was performed to determine cell proliferation. Briefly, CLS1/CAF and CLS1 cells were added to 96-well plates at a density of 5×10^3 cells/well. After incubating for 24 h, the cells were serum-starved overnight. The cells were then treated with different concentrations (0-50 μM) of the drugs docetaxel, cisplatin, etoposide and vinorelbine for 48 h. After 48 h, the culture medium containing 0.5 mg/ml MTT was added to each well. After 1.5 h of incubation, the medium was removed, and DMSO was added to the plates. The color intensity of the solubilized formazan was measured at 570 nm in an ELISA plate reader (Vector3; Perkin-Elmer, USA).

CLS1 = test: Drug resistance assay (MTT), CLS1; details: 48 h drug treatment, CLS1 after CAF removal
Protocol: as §1

[1] = system: lung cancer cells co-cultured with CAFs; test: Image-based high-content analysis of Nanog-positive cells per colony
Protocol: Lung CSCs or cancer cells (200 cells/well) were added to 96-well plates pre-seeded with CAFs (2000 cells/well) and were allowed to attach to the plates overnight. After different treatments, cells were processed following the immunofluorescence protocol with the Nanog (ReproCELL) (1:300) primary antibody (as the cancer stem-cell marker) and the mouse anti-human CD90 FITC-conjugated (5E10, BD Pharmingen) antibody (as the CAF marker) overnight at 4° C. Next, the primary antibodies were incubated with the TRITC-conjugated secondary antibody [goat anti-rabbit IgG (H+L) Conjugate, Invitrogen] for 2 h at room temperature. The nuclei were counterstained with the Hoechst 33342 dye (Invitrogen). To determine the background fluorescence level of the secondary antibody, each plate included control wells containing only the secondary antibody (stained with the Hoechst 33342 dye). Images of the stained cells were acquired using the automated fluorescence microscopy platform.
Image acquisition and analysis were performed as follows. Stained cells were imaged using the high-content analysis platform with a 4× objective. […] The images were analyzed using the MetaXpress® software (Molecular Devices). […] Finally, the TRITC-stained cell count and the total cell count were determined. The stemness of each colony was calculated as the ratio of Nanog-positive (TRITC-stained) cells to total cells. […]

Nanog = test: RT Q-PCR analysis of the stem cell marker Nanog; details: for Nanog expression in CLS1 cells treated with cytokine: IGF-II 10 ng/ml, HGF 10 ng/ml, sCD14 500 ng/ml (FIG. 4f)
Protocol: The expression level of stemness-related genes and validation of the Affymetrix microarray data for CAF, CLS1/CAF and CLS1 were performed through RT Q-PCR using an ABI Prism 7900 Sequencer (Applied Biosystems).
TATA-box binding protein (TBP) and β-actin were used as internal controls. The expression levels were normalized to TBP and defined as −ΔCT=−[CTtarget−CTTBP]. The relative expression ratio was calculated as the fold change relative to the control (2^−ΔΔCT). The experiments were performed in triplicate.

CLS1 cells = test: Ultra-low sphere-forming assay, CLS1; details: IGF-II 10 and 100 ng/ml, 21 days (FIG. 5b)
Protocol: An ultra-low sphere-forming assay was performed as previously described (Dontu, et al., 2003) and modified as the following procedures. A single-cell suspension of lung CSCs in MCDB201 serum-free medium (Invitrogen) supplemented with 20 ng/ml EGF (Sigma) and 20 ng/ml bFGF (Invitrogen) was seeded in ultra-low adherent 24-well plates (Corning, Corning, N.Y., USA; 200 viable cells/well). The medium was supplemented with fresh growth factors twice weekly. After 3 weeks, the spheres were examined under the Axiovert 200 microscope.

[2] = system: IGF1R-p/IGF1R, AKT-p/AKT and Nanog; test: Western blot analysis of IGF1R, AKT and Nanog; details: CLS1, CL141 and CL152; IGF-II 10 or 100 ng/ml, time-dependent (FIG. 5c)
Protocol: The detailed procedures were performed as described in Zoller, Nat Rev Cancer 11:254-267 (2011). The primary antibodies for p-IGF1R (Y1316, 6113S; 1:1000), p-AKT (D9E; 1:1000), AKT (927L; 1:1000) and Nanog (D73G4; 1:1000) were purchased from Cell Signaling Technology, Inc., and the primary antibody for IGF1R (C-20; 1:1000) was purchased from Santa Cruz. Monoclonal mouse anti-β-actin (Chemicon, Millipore; 1:5000) was used as a loading control. The membranes were then washed three times with TBST, followed by incubation with horseradish peroxidase (HRP)-conjugated secondary antibody (1:5,000) in TBST/2% skim milk. Bound antibody was detected using the Enhanced Chemiluminescence System (Santa Cruz, Calif.). Chemiluminescent signals were captured using the Fujifilm LAS 3000 system (Fujifilm, Tokyo, Japan). All experiments were performed at least three times in duplicate.

ALDH activity = test: ALDEFLUOR assay (flow cytometry); details: CLS1/CAFs, A549, H1975 and EKVX; IGF-II 100 ng/ml (FIG. 15)
Protocol: ALDH activity of cells was measured using the ALDEFLUOR assay kit (StemCell Technologies) based on the manufacturer's protocol and a previous report. Ginestier, et al., 2007. After different treatments, the cells were suspended in the ALDEFLUOR assay buffer containing the ALDH substrate BODIPY-aminoacetaldehyde (BAAA, 1 mM per 1×10^6 cells, incubate 30 min at 37° C.). As a negative control, the cell sample was treated with diethylaminobenzaldehyde (DEAB), a specific ALDH inhibitor. Nonviable cells were identified by propidium iodide staining and analysis using the FACSAria instrument (Becton Dickinson).

Compound: N.N.[Cl][Pt][Cl] [Cisplatin]
- IC50 (CLS1/CAF): 310 nM
- IC50 (CLS1): 200 nM

Compound: CC(=O)O[C@@]12CO[C@@H]1C[C@H](O)[C@@]1(C)C(=O)[C@H](O)C3=C(C)[C@@H](OC(=O)[C@H](O)[C@@H](NC(=O)OC(C)(C)C)c4ccccc4)C[C@@](O)([C@@H](OC(=O)c4ccccc4)[C@H]21)C3(C)C [Docetaxel]
- IC50 (CLS1/CAF; Homo sapiens): 54.8 nM
- IC50 (CLS1; Homo sapiens): 4.2 nM

Compound: COc1cc([C@@H]2c3cc4c(cc3[C@@H](O[C@@H]3O[C@@H]5CO[C@@H](C)O[C@H]5[C@H](O)[C@H]3O)[C@H]3COC(=O)[C@H]23)OCO4)cc(OC)c1O [Etoposide (VP-16), Etoposide]
- IC50 (CLS1/CAF; Homo sapiens): 109000 nM
- IC50 (CLS1; Homo sapiens): 1060 nM

Compound: COc1cc([C@@H]2c3cc4c(cc3[C@H](O)[C@H]3COC(=O)[C@@H]23)OCO4)cc(OC)c1OC [PPP, picropodophyllin]
- Nanog-positive cells in each colony ([1]; A549, EKVX, CLS1, CL141 and CL152 co-cultured with CAFs, antibody 1 μg/ml, inhibitors 1 μM/ml (FIG. 6a)): significantly inhibited

Compound: CCC1=C[C@@H]2CN(C1)Cc1c([nH]c3ccccc13)[C@@](C(=O)OC)(c1cc3c(cc1OC)N(C)[C@H]1[C@@](O)(C(=O)OC)[C@H](OC(C)=O)[C@]4(CC)C=CCN5CC[C@]31[C@@H]54)C2 [Vinorelbine ditartrate]
- IC50 (CLS1/CAF; Homo sapiens): 775 nM
- IC50 (CLS1; Homo sapiens): 28.5 nM

Compound: HGF: hepatocyte growth factor, cytokine added to CLS1 cells
- Nanog expression in CLS1 cells treated with cytokine (Nanog): induced

Compound: IGF-II: growth factor secreted by CAFs, added as cytokine to cancer cells
- sphere numbers and size (CLS1 cells): enlarged
- Nanog expression (Nanog; CLS1, A549, H1975 and H460 treated with IGF-II 100 ng/ml (FIG. 5a)): increased
- Nanog expression in CLS1 cells treated with cytokine (Nanog): induced
- number of Nanog-positive cells per colony ([1]; IGF-II 10 and 100 ng/ml, CLS1 cells (FIG. 14b)): facilitated
- IGF1R and Akt phosphorylation and downstream Nanog expression [2]: induced
- ALDEFLUOR-positive ratio (ALDH activity): increased
